Tests used:
[1] = target: T1, Human PDGFRα, cytoplasmic domain (GST-PDGFRα) (Homo sapiens, UniProt P16234); test: Human PDGFRα biochemical inhibition assay (off-chip Mobility Shift Assay)
T1 construct: made in house

[2] = target: T2, Human PDGFRβ, cytoplasmic domain (GST-PDGFRβ) (Homo sapiens, UniProt P09619); test: Human PDGFRβ biochemical inhibition assay (off-chip Mobility Shift Assay)
T2 construct: made in house
Outline: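 GST-tagged cytoplasmic domain (aa 557-1106) from baculovirus was incubated 1 h at room temperature with compound, CSKtide, ATP at Km and Mg²⁺ in HEPES buffer, pH 7.5. Phosphorylated and unphosphorylated peptide were separated by off-chip mobility shift, and the product ratio P/(P+S) gave percent inhibition.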

T2 sequence (P09619 with tags, fused parts or gaps): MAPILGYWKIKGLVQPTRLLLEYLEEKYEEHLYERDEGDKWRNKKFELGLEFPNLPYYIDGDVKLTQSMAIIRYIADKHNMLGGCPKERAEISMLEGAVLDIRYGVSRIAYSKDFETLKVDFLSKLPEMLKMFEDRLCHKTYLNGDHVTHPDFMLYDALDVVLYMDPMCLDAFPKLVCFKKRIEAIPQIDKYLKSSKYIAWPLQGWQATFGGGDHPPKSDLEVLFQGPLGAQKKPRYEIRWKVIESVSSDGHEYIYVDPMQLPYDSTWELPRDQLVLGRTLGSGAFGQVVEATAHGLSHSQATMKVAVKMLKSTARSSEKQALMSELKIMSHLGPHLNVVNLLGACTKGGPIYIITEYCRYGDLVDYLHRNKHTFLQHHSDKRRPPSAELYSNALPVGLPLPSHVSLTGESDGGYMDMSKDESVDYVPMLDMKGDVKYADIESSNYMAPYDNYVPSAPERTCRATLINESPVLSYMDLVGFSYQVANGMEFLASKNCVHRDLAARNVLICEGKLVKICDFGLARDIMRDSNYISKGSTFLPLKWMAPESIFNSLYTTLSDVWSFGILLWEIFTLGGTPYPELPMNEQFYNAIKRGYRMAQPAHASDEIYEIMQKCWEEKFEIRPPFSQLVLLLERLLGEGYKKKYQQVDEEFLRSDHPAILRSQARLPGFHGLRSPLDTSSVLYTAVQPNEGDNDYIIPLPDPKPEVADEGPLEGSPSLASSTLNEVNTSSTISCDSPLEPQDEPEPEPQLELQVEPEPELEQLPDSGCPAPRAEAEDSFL
T1 sequence (P16234 550-1089 T674I): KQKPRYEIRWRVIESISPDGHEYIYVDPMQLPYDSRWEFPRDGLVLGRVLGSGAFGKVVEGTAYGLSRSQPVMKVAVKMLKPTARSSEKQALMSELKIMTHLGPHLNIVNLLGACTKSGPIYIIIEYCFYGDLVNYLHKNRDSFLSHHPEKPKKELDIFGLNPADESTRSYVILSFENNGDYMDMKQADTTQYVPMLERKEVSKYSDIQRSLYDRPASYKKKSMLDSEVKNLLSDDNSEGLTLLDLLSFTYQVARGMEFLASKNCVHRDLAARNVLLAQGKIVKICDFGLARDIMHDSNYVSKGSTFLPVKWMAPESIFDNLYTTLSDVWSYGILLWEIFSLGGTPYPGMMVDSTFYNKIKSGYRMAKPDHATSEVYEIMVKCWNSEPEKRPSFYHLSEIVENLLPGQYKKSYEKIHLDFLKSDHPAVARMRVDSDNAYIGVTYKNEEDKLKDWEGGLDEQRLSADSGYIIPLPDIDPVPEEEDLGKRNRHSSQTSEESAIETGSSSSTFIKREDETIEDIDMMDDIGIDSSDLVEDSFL

| SMILES | IC50 [1] | IC50 [2] |
| --- | --- | --- |
| Cc1c[nH]c2ncc(N[C@@H](C)c3cccc(NC(=O)c4ccc(OC(F)(F)F)nc4)c3)nc12 [Compound 568, (S)-N-(3-(1-((7-methyl-5H-pyrrolo[2,3-b]pyrazin-2-yl)amino)ethyl)phenyl)-6-(trifluoromethoxy)nicotinamide] | 300 to 1000 nM | ≥ 1000 nM |
| Cc1cncc(C(=O)Nc2cccc([C@H](C)Nc3cnc4[nH]cc(C5CC5)c4n3)c2)c1 [Compound 569, (S)-N-(3-(1-((7-cyclopropyl-5H-pyrrolo[2,3-b]pyrazin-2-yl)amino)ethyl)phenyl)-5-methylnicotinamide] | 300 to 1000 nM | < 300 nM |
| Cc1c[nH]c2ncc(N[C@@H](C)c3cccc(NC(=O)c4cnc(C(F)(F)F)s4)c3)nc12 [Compound 572, (S)-N-(3-(1-((7-methyl-5H-pyrrolo[2,3-b]pyrazin-2-yl)amino)ethyl)phenyl)-2-(trifluoromethyl)thiazole-5-carboxamide] | ≥ 1000 nM | 300 to 1000 nM |
| C[C@H](Nc1cnc2[nH]cc(-c3cnn(C)c3)c2n1)c1cccc(NC(=O)c2cnc(C3CC3)s2)c1 [Compound 578, (S)-2-cyclopropyl-N-(3-(1-((7-(1-methyl-1H-pyrazol-4-yl)-5H-pyrrolo[2,3-b]pyrazin-2-yl)amino)ethyl)phenyl)thiazole-5-carboxamide] | < 300 nM | < 300 nM |
| COc1ncc(C(=O)Nc2cccc([C@H](C)Nc3cnc4[nH]cc(-c5cnn(C)c5)c4n3)c2)cc1C [Compound 579, (S)-6-methoxy-5-methyl-N-(3-(1-((7-(1-methyl-1H-pyrazol-4-yl)-5H-pyrrolo[2,3-b]pyrazin-2-yl)amino)ethyl)phenyl) nicotinamide] | < 300 nM | < 300 nM |
| C[C@H](Nc1cnc2[nH]cc(-c3cnn(C)c3)c2n1)c1cccc(NC(=O)c2ccc(C(F)(F)F)nc2)c1 [Compound 580, (S)-N-(3-(1-((7-(1-methyl-1H-pyrazol-4-yl)-5H-pyrrolo[2,3-b]pyrazin-2-yl)amino)ethyl)phenyl)-6-(trifluoromethyl) nicotinamide] | 300 to 1000 nM | < 300 nM |
| C[C@H](Nc1cnc2[nH]cc(-c3cnn(C)c3)c2n1)c1cccc(NC(=O)c2cnn(C3CC3)c2)c1 [Compound 581, (S)-1-cyclopropyl-N-(3-(1-((7-(1-methyl-1H-pyrazol-4-yl)-5H-pyrrolo[2,3-b]pyrazin-2-yl)amino)ethyl)phenyl)-1H-pyrazole-4-carboxamide] | < 300 nM | < 300 nM |
| C[C@H](Nc1cnc2[nH]cc(-c3cnn(C)c3)c2n1)c1cccc(NC(=O)c2cnc(C(F)(F)F)s2)c1 [Compound 582, (S)-N-(3-(1-((7-(1-methyl-1H-pyrazol-4-yl)-5H-pyrrolo[2,3-b]pyrazin-2-yl)amino)ethyl)phenyl)-2-(trifluoromethyl) thiazole-5-carboxamide] | 300 to 1000 nM | 300 to 1000 nM |
| Cc1ncc(C(=O)Nc2cccc([C@H](C)Nc3cnc4[nH]cc(-c5cnn(C)c5)c4n3)c2)s1 [Compound 583, (S)-2-methyl-N-(3-(1-((7-(1-methyl-1H-pyrazol-4-yl)-5H-pyrrolo[2,3-b]pyrazin-2-yl)amino)ethyl)phenyl)thiazole-5-carboxamide] | < 300 nM | < 300 nM |
| C[C@H](Nc1cnc2[nH]cc(-c3cnn(C)c3)c2n1)c1cccc(NC(=O)c2cc(C(F)(F)F)nn2C)c1 [Compound 584, (S)-1-methyl-N-(3-(1-((7-(1-methyl-1H-pyrazol-4-yl)-5H-pyrrolo[2,3-b]pyrazin-2-yl)amino)ethyl)phenyl)-3-(trifluoromethyl)-1H-pyrazole-5-carboxamide] | 300 to 1000 nM | 300 to 1000 nM |
| C[C@H](Nc1cnc2[nH]cc(-c3cnn(C)c3)c2n1)c1cccc(NC(=O)c2ccc(N3CCCC3)nc2)c1 [Compound 585, (S)-N-(3-(1-((7-(1-methyl-1H-pyrazol-4-yl)-5H-pyrrolo[2,3-b]pyrazin-2-yl)amino)ethyl)phenyl)-6-(pyrrolidin-1-yl) nicotinamide] | < 300 nM | < 300 nM |
| COc1cncc(C(=O)Nc2cccc([C@H](C)Nc3cnc4[nH]cc(-c5cnn(C)c5)c4n3)c2)c1 [Compound 586, (S)-5-methoxy-N-(3-(1-((7-(1-methyl-1H-pyrazol-4-yl)-5H-pyrrolo[2,3-b]pyrazin-2-yl)amino)ethyl)phenyl) nicotinamide] | < 300 nM | < 300 nM |
| CNc1ncc(C(=O)Nc2cccc([C@H](C)Nc3cnc4[nH]cc(-c5cnn(C)c5)c4n3)c2)cc1C [Compound 587, (S)-5-methyl-N-(3-(1-((7-(1-methyl-1H-pyrazol-4-yl)-5H-pyrrolo[2,3-b]pyrazin-2-yl)amino)ethyl)phenyl)-6-(methylamino)nicotinamide] | < 300 nM | < 300 nM |
| CC(C)n1cc(C(=O)Nc2cccc([C@H](C)Nc3cnc4[nH]cc(-c5cnn(C)c5)c4n3)c2)cn1 [Compound 588, (S)-1-isopropyl-N-(3-(1-((7-(1-methyl-1H-pyrazol-4-yl)-5H-pyrrolo[2,3-b]pyrazin-2-yl)amino)ethyl)phenyl)-1H-pyrazole-4-carboxamide] | < 300 nM | < 300 nM |
| C[C@H](Nc1cnc2[nH]cc(-c3cnn(C)c3)c2n1)c1cccc(NC(=O)[C@@H]2C[C@H]2C(F)(F)F)c1 [Compound 589, (1R,2R)-N-(3-((S)-1-((7-(1-methyl-1H-pyrazol-4-yl)-5H-pyrrolo[2,3-b]pyrazin-2-yl)amino)ethyl)phenyl)-2-(trifluoromethyl)cyclopropane-1-carboxamide] | ≥ 1000 nM | 300 to 1000 nM |
| Cc1cncc(C(=O)Nc2cccc([C@H](C)Nc3cnc4[nH]cc(-c5cccnc5)c4n3)c2)c1 [Compound 591, (S)-5-methyl-N-(3-(1-((7-(pyridin-3-yl)-5H-pyrrolo[2,3-b]pyrazin-2-yl)amino)ethyl)phenyl)nicotinamide] | < 300 nM | < 300 nM |
| Cc1cncc(C(=O)Nc2cccc([C@H](C)Nc3cnc4[nH]cc(-c5ccncc5)c4n3)c2)c1 [Compound 592, (S)-5-methyl-N-(3-(1-((7-(pyridin-4-yl)-5H-pyrrolo[2,3-b]pyrazin-2-yl)amino)ethyl)phenyl)nicotinamide] | < 300 nM | < 300 nM |

Other lines, results leading:

| IC50 [1] | IC50 [2] | SMILES |
| --- | --- | --- |
| < 300 nM | < 300 nM | CCc1c[nH]c2ncc(N[C@@H](C)c3cccc(NC(=O)c4cncc(C)c4)c3)nc12 [Compound 564, (S)-N-(3-(1-((7-ethyl-5H-pyrrolo[2,3-b]pyrazin-2-yl)amino)ethyl)phenyl)-5-methylnicotinamide] |
| < 300 nM | < 300 nM | Cc1c[nH]c2ncc(N[C@@H](C)c3cccc(NC(=O)c4cncc(Cl)c4)c3)nc12 [Compound 565, (S)-5-chloro-N-(3-(1-((7-methyl-5H-pyrrolo[2,3-b]pyrazin-2-yl)amino)ethyl)phenyl)nicotinamide] |
| < 300 nM | < 300 nM | COc1ccc(C(=O)Nc2cccc([C@H](C)Nc3cnc4[nH]cc(-c5cnn(C)c5)c4n3)c2)cn1 [Compound 566, (S)-6-methoxy-N-(3-(1-((7-(1-methyl-1H-pyrazol-4-yl)-5H-pyrrolo[2,3-b]pyrazin-2-yl)amino)ethyl)phenyl) nicotinamide] |
| < 300 nM | 300 to 1000 nM | Cc1c[nH]c2ncc(N[C@@H](C)c3cccc(NC(=O)c4cc(C(F)(F)F)n(C)n4)c3)nc12 [Compound 567, (S)-1-methyl-N-(3-(1-((7-methyl-5H-pyrrolo[2,3-b]pyrazin-2-yl)amino)ethyl)phenyl)-5-(trifluoromethyl)-1H-pyrazole-3-carboxamide] |
| < 300 nM | < 300 nM | CCOc1ccc(C(=O)Nc2cccc([C@H](C)Nc3cnc4[nH]cc(C)c4n3)c2)cn1 [Compound 570, (S)-6-ethoxy-N-(3-(1-((7-methyl-5H-pyrrolo[2,3-b]pyrazin-2-yl)amino)ethyl)phenyl)nicotinamide] |
| < 300 nM | < 300 nM | Cc1c[nH]c2ncc(N[C@@H](C)c3cccc(NC(=O)c4cnc(C5CC5)s4)c3)nc12 [Compound 571, (S)-2-cyclopropyl-N-(3-(1-((7-methyl-5H-pyrrolo[2,3-b]pyrazin-2-yl)amino)ethyl)phenyl)thiazole-5-carboxamide] |
| < 300 nM | < 300 nM | Cc1c[nH]c2ncc(N[C@@H](C)c3cccc(NC(=O)c4cnn(C5CC5)c4)c3)nc12 [Compound 573, (s)-1-cyclopropyl-N-(3-(1-((7-methyl-5H-pyrrolo[2,3-b]pyrazin-2-yl)amino)ethyl)phenyl)-1H-pyrazole-4-carboxamide] |
| < 300 nM | < 300 nM | CCn1cc(C(=O)Nc2cccc([C@H](C)Nc3cnc4[nH]cc(C)c4n3)c2)cn1 [Compound 574, (S)-1-ethyl-N-(3-(1-((7-methyl-5H-pyrrolo[2,3-b]pyrazin-2-yl)amino)ethyl)phenyl)-1H-pyrazole-4-carboxamide] |
| < 300 nM | < 300 nM | Cc1c[nH]c2ncc(N[C@@H](C)c3cccc(NC(=O)c4cnn(CCF)c4)c3)nc12 [Compound 575, (S)-1-(2-fluoroethyl)-N-(3-(1-((7-methyl-5H-pyrrolo[2,3-b]pyrazin-2-yl)amino)ethyl)phenyl)-1H-pyrazole-4-carboxamide] |
| < 300 nM | < 300 nM | Cc1cc(C(=O)Nc2cccc([C@H](C)Nc3cnc4[nH]cc(-c5cnn(C)c5)c4n3)c2)cnc1C(F)(F)F [Compound 576, (S)-5-methyl-N-(3-(1-((7-(1-methyl-1H-pyrazol-4-yl)-5H-pyrrolo[2,3-b]pyrazin-2-yl)amino)ethyl)phenyl)-6-(trifluoromethyl)nicotinamide] |
| < 300 nM | < 300 nM | Cc1cc(C(=O)Nc2cccc([C@H](C)Nc3cnc4[nH]cc(-c5cnn(C)c5)c4n3)c2)cnc1N1CCCC1 [Compound 577, (S)-5-methyl-N-(3-(1-((7-(1-methyl-1H-pyrazol-4-yl)-5H-pyrrolo[2,3-b]pyrazin-2-yl)amino)ethyl)phenyl)-6-(pyrrolidin-1-yl)nicotinamide] |

Reference: US20230102554A1 (GB002, INC., priority 2019, published 2023)
